What was measured:
Fc-MAG(d1-3) = target: T1, Fc-MAG(d1-3) (Mus musculus, UniProt P20917); assay: surface plasmon resonance (BIACORE 3000), Fc-MAG(d1-3) immobilized by protein A; type: binding, murine
T1 sequence (P20917 20-325 limits assumed): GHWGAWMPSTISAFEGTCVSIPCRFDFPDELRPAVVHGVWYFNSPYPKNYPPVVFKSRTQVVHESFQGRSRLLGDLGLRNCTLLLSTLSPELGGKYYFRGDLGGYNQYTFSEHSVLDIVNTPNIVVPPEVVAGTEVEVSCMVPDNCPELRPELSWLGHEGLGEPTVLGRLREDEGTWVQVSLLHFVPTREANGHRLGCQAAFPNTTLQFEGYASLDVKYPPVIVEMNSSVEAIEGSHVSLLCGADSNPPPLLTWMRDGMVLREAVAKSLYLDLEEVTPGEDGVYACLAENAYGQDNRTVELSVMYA
Experimental: For the in situ click chemistry experiment (Lewis, 2002; Bourne, 2004; […], 2005), Fc-MAG(d1-3) (Crocker, 1996) (8.77 μM) was incubated with a mixture of the four substituted first-site ligands 14a-d (each 40 μM) and the two substituted second-site ligands 22, 26 (each 800 μM) in phosphate buffer (pH 7.4) at 37° C. for 24 h. The different concentrations of the first- and second-site ligands reflect their affinities in the low micro- and millimolar range. […] To exclude that false positives are formed during incubation, two control experiments were performed. In the first, MAG was replaced by bovine serum albumin. In the second, no protein was added. In both experiments, no triazole formation could be observed. The protein included the Fc portion of human immunoglobulin IgG1 and the three N-terminal domains of murine MAG (for its preparation, see Crocker & Kelm (1996)). […] The KD analyses were performed at 25° C. on a BIACORE 3000 surface plasmon resonance-based optical biosensor (Biacore AB, Uppsala, Sweden). Protein A (Sigma, Basel) was immobilized onto a CM5 sensor chip (Biacore AB, research grade) using standard amine coupling. All data processing and equilibrium binding constant determinations were accomplished with Scrubber© (BioLogic Software, Campbell, Australia, Version 1.1g). […] The equilibrium binding constants KD were calculated using a 1:1 binding model. […]

MAG = target: T2, MAG (Mus musculus, UniProt P20917); assay: NMR second-site screening with spin-labeled first-site ligand 2 (Jahnke method); settings: H-NMR in the presence of spin-labeled analogue 2; indicates binding proximate (radius of 15 to 20 Å) to the Tempo spin label
T2 sequence (P20917 20-627): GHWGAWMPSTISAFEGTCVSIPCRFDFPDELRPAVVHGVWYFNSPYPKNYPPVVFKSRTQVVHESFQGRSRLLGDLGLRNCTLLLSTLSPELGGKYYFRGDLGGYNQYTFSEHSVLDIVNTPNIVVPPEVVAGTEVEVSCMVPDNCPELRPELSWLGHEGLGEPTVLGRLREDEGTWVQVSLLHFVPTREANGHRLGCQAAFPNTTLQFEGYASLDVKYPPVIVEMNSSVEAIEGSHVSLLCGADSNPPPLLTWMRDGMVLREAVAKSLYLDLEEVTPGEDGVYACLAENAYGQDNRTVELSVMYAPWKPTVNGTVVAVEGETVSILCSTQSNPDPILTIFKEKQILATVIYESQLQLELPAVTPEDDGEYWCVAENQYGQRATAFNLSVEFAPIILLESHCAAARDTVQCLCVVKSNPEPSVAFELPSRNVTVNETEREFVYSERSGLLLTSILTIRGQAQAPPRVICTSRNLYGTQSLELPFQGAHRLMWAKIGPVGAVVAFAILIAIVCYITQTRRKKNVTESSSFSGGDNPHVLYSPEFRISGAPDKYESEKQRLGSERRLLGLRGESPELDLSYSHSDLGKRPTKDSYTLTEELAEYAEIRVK
Excerpt: Second-site ligands that are affected by the initial lead can be detected in different ways, including NMR based methods that involve, e.g. spin labeling the initial lead. […] Jahnke's method detects the paramagnetic relaxation enhancement on a second ligand caused by a spin-labeled first ligand. The method allows for the detection of “true” second-site ligands, which are ligands that bind to the target (1) simultaneously with and (2) in the proximity of the first ligand (“second-site screening”).
Members of a library composed of 60 divers or sub-libraries thereof, which are drug-like, soluble and synthetically easily available fragments (“second-site ligands”) binding to the target protein were identified based on their shorter relaxation time in H-NMR.

affinity (Fc-MAG(d1-3); surface plasmon resonance experiment)	paramagnetic relaxation enhancement (MAG)	Kd (Fc-MAG(d1-3); SPR, Fc-MAG(d1-3) immobilized by protein A, 25° C., 1:1 binding model) [nM]	SMILES
low millimolar range	enhanced relaxation was observed	–	O=[N+]([O-])c1ccc2[nH]ccc2c1 [compound 15, 5-nitro-1H-indole]
–	–	190	CC(=O)NC1C(O)CC(OCc2cn(CCCc3c[nH]c4ccc([N+](=O)[O-])cc34)nn2)(C(=O)O)OC1C(O)C(O)CNC(=O)c1ccccc1 [compound 27, 1-(5-nitro-1H-indol-3-yl-propyl)-4-{sodium [5-acetamido-9-benzamido-3,5,9-trideoxy-D-glycero-α-D-galacto-2-nonulopyranosynate-2-O-yl}-methyl-1,2,3]-triazole]
